Experimental data published in the NIST ThermoML archive (doi:10.1016/j.jct.2003.11.008).
± gives the expanded uncertainty stated by the source.

How the values were obtained:
[1] = 318.15 K; 101.33 kPa; Liquid; Vibrating tube method
[2] = refractive index (Na D-line) (dimensionless); conditions: 318.15 K; 101.33 kPa; Liquid; Standard Abbe refractometry
[3] = xn = mol fraction of the nth substance listed; conditions: 318.15 K, 101.3 kPa, Liquid
[4] = excess molar enthalpy (molar enthalpy of mixing); xn = mol fraction of the nth substance listed; conditions: 318.15 K, 101.3 kPa, Liquid

## CCCCOC(C)=O [butyl ethanoate]
[1]
  mass density: 855.39 ± 0.17 kg/m3
[2]
  refractive index: 1.3825 ± 0.0007

## CCOC(C)=O [ethyl acetate]
[1]
  mass density: 869.54 ± 0.24 kg/m3
[2]
  refractive index: 1.3597 ± 0.0007

## CCCCCCCCCCCCCCCCC [heptadecane]
[1]
  mass density: 760.8 ± 0.79 kg/m3
[2]
  refractive index: 1.4268 ± 0.0008

## CCCCCCC [heptane]
[1]
  mass density: 662.04 ± 0.27 kg/m3
[2]
  refractive index: 1.3748 ± 0.0007

## COC(C)=O [methyl ethanoate]
[1]
  mass density: 900.1 ± 0.24 kg/m3
[2]
  refractive index: 1.349 ± 0.0007

## CCCCCCCCC [nonane]
[1]
  mass density: 698.06 ± 0.4 kg/m3
[2]
  refractive index: 1.3939 ± 0.0008

## CCCCCCCCCCCCCCC [pentadecane]
[1]
  mass density: 750.9 ± 0.78 kg/m3
[2]
  refractive index: 1.4212 ± 0.0008

## CCCCCOC(C)=O [pentyl ethanoate]
[1]
  mass density: 852.93 ± 0.45 kg/m3
[2]
  refractive index: 1.391 ± 0.0008

## CCCOC(C)=O [propyl ethanoate]
[1]
  mass density: 859.78 ± 0.88 kg/m3
[2]
  refractive index: 1.3721 ± 0.0008

## CCCCCCCCCCCCC [tridecane]
[1]
  mass density: 738.34 ± 0.41 kg/m3
[2]
  refractive index: 1.4155 ± 0.0008

## CCCCCCCCCCCCC [tridecane] + CCOC(C)=O
[3]; x2 = 0.1246
  excess molar volume: 6.09e-07 ± 1.8e-08 m3/mol
[3]; x2 = 0.2249
  excess molar volume: 9.81e-07 ± 2e-08 m3/mol
[3]; x2 = 0.3076
  excess molar volume: 1.215e-06 ± 2.1e-08 m3/mol
[3]; x2 = 0.3854
  excess molar volume: 1.386e-06 ± 2.2e-08 m3/mol
[3]; x2 = 0.4562
  excess molar volume: 1.461e-06 ± 2.2e-08 m3/mol
[3]; x2 = 0.5148
  excess molar volume: 1.515e-06 ± 2.3e-08 m3/mol
[3]; x2 = 0.5732
  excess molar volume: 1.518e-06 ± 2.3e-08 m3/mol
[3]; x2 = 0.6235
  excess molar volume: 1.506e-06 ± 2.2e-08 m3/mol
[3]; x2 = 0.6695
  excess molar volume: 1.462e-06 ± 2.2e-08 m3/mol
[3]; x2 = 0.7136
  excess molar volume: 1.402e-06 ± 2.2e-08 m3/mol
[3]; x2 = 0.7509
  excess molar volume: 1.322e-06 ± 2.2e-08 m3/mol
[3]; x2 = 0.775
  excess molar volume: 1.255e-06 ± 2.1e-08 m3/mol
[3]; x2 = 0.8123
  excess molar volume: 1.128e-06 ± 2.1e-08 m3/mol
[3]; x2 = 0.881
  excess molar volume: 8.36e-07 ± 1.9e-08 m3/mol
[3]; x2 = 0.9317
  excess molar volume: 5.36e-07 ± 1.8e-08 m3/mol
[3]; x2 = 0.9691
  excess molar volume: 2.65e-07 ± 1.7e-08 m3/mol
[4]; x2 = 0.0838
  excess molar enthalpy: 0.122 ± 0.00227 kcal/mol
[4]; x2 = 0.1616
  excess molar enthalpy: 0.217 ± 0.00382 kcal/mol
[4]; x2 = 0.2388
  excess molar enthalpy: 0.302 ± 0.00502 kcal/mol
[4]; x2 = 0.3097
  excess molar enthalpy: 0.371 ± 0.00621 kcal/mol
[4]; x2 = 0.3743
  excess molar enthalpy: 0.42 ± 0.00693 kcal/mol
[4]; x2 = 0.4307
  excess molar enthalpy: 0.449 ± 0.00741 kcal/mol
[4]; x2 = 0.4842
  excess molar enthalpy: 0.467 ± 0.00765 kcal/mol
[4]; x2 = 0.532
  excess molar enthalpy: 0.478 ± 0.00789 kcal/mol
[4]; x2 = 0.5728
  excess molar enthalpy: 0.479 ± 0.00789 kcal/mol
[4]; x2 = 0.6188
  excess molar enthalpy: 0.474 ± 0.00765 kcal/mol
[4]; x2 = 0.6556
  excess molar enthalpy: 0.463 ± 0.00765 kcal/mol
[4]; x2 = 0.6946
  excess molar enthalpy: 0.449 ± 0.00741 kcal/mol
[4]; x2 = 0.7336
  excess molar enthalpy: 0.427 ± 0.00693 kcal/mol
[4]; x2 = 0.7755
  excess molar enthalpy: 0.396 ± 0.00645 kcal/mol
[4]; x2 = 0.8179
  excess molar enthalpy: 0.354 ± 0.00598 kcal/mol
[4]; x2 = 0.8605
  excess molar enthalpy: 0.3 ± 0.00502 kcal/mol
[4]; x2 = 0.9015
  excess molar enthalpy: 0.239 ± 0.00406 kcal/mol
[4]; x2 = 0.9432
  excess molar enthalpy: 0.161 ± 0.00287 kcal/mol
[4]; x2 = 0.9761
  excess molar enthalpy: 0.0749 ± 0.00163 kcal/mol

## CCCCCCCCCCCCC [tridecane] + COC(C)=O
[3]; x2 = 0.1152
  excess molar volume: 6.95e-07 ± 1.9e-08 m3/mol
[3]; x2 = 0.195
  excess molar volume: 1.093e-06 ± 2.1e-08 m3/mol
[3]; x2 = 0.2573
  excess molar volume: 1.364e-06 ± 2.2e-08 m3/mol
[3]; x2 = 0.3086
  excess molar volume: 1.537e-06 ± 2.3e-08 m3/mol
[3]; x2 = 0.357
  excess molar volume: 1.665e-06 ± 2.3e-08 m3/mol
[3]; x2 = 0.4302
  excess molar volume: 1.838e-06 ± 2.4e-08 m3/mol
[3]; x2 = 0.5045
  excess molar volume: 1.919e-06 ± 2.4e-08 m3/mol
[3]; x2 = 0.561
  excess molar volume: 1.946e-06 ± 2.5e-08 m3/mol
[3]; x2 = 0.6192
  excess molar volume: 1.917e-06 ± 2.4e-08 m3/mol
[3]; x2 = 0.666
  excess molar volume: 1.849e-06 ± 2.4e-08 m3/mol
[3]; x2 = 0.7125
  excess molar volume: 1.753e-06 ± 2.4e-08 m3/mol
[3]; x2 = 0.7495
  excess molar volume: 1.651e-06 ± 2.3e-08 m3/mol
[3]; x2 = 0.8399
  excess molar volume: 1.288e-06 ± 2.1e-08 m3/mol
[3]; x2 = 0.8997
  excess molar volume: 9.51e-07 ± 2e-08 m3/mol
[3]; x2 = 0.9425
  excess molar volume: 6.18e-07 ± 1.8e-08 m3/mol
[3]; x2 = 0.9745
  excess molar volume: 2.97e-07 ± 1.7e-08 m3/mol
[4]; x2 = 0.1268
  excess molar enthalpy: 0.197 ± 0.00335 kcal/mol
[4]; x2 = 0.2391
  excess molar enthalpy: 0.341 ± 0.00574 kcal/mol
[4]; x2 = 0.3316
  excess molar enthalpy: 0.448 ± 0.00741 kcal/mol
[4]; x2 = 0.4097
  excess molar enthalpy: 0.517 ± 0.00837 kcal/mol
[4]; x2 = 0.4693
  excess molar enthalpy: 0.553 ± 0.00884 kcal/mol
[4]; x2 = 0.5214
  excess molar enthalpy: 0.571 ± 0.00908 kcal/mol
[4]; x2 = 0.5635
  excess molar enthalpy: 0.578 ± 0.00932 kcal/mol
[4]; x2 = 0.5965
  excess molar enthalpy: 0.581 ± 0.00932 kcal/mol
[4]; x2 = 0.6319
  excess molar enthalpy: 0.574 ± 0.00932 kcal/mol
[4]; x2 = 0.6706
  excess molar enthalpy: 0.559 ± 0.00908 kcal/mol
[4]; x2 = 0.7114
  excess molar enthalpy: 0.534 ± 0.0086 kcal/mol
[4]; x2 = 0.7533
  excess molar enthalpy: 0.504 ± 0.00813 kcal/mol
[4]; x2 = 0.7939
  excess molar enthalpy: 0.461 ± 0.00741 kcal/mol
[4]; x2 = 0.8383
  excess molar enthalpy: 0.402 ± 0.00669 kcal/mol
[4]; x2 = 0.883
  excess molar enthalpy: 0.33 ± 0.0055 kcal/mol
[4]; x2 = 0.9274
  excess molar enthalpy: 0.242 ± 0.00406 kcal/mol
[4]; x2 = 0.9665
  excess molar enthalpy: 0.133 ± 0.00239 kcal/mol

## CCCCCCCCCCC [undecane]
[1]
  mass density: 721.76 ± 0.41 kg/m3
[2]
  refractive index: 1.4063 ± 0.0008

## CCCCCCCCCCC [undecane] + CCCCOC(C)=O
[3]; x2 = 0.0356
  excess molar volume: 1.49e-07 ± 1.6e-08 m3/mol
[3]; x2 = 0.0842
  excess molar volume: 3.26e-07 ± 1.7e-08 m3/mol
[3]; x2 = 0.1543
  excess molar volume: 5.21e-07 ± 1.8e-08 m3/mol
[3]; x2 = 0.2226
  excess molar volume: 6.82e-07 ± 1.9e-08 m3/mol
[3]; x2 = 0.288
  excess molar volume: 7.97e-07 ± 1.9e-08 m3/mol
[3]; x2 = 0.35
  excess molar volume: 8.56e-07 ± 1.9e-08 m3/mol
[3]; x2 = 0.407
  excess molar volume: 9.28e-07 ± 2e-08 m3/mol
[3]; x2 = 0.4636
  excess molar volume: 9.43e-07 ± 2e-08 m3/mol
[3]; x2 = 0.5172
  excess molar volume: 9.66e-07 ± 2e-08 m3/mol
[3]; x2 = 0.5676
  excess molar volume: 9.44e-07 ± 2e-08 m3/mol
[3]; x2 = 0.6153
  excess molar volume: 9.27e-07 ± 2e-08 m3/mol
[3]; x2 = 0.6613
  excess molar volume: 8.79e-07 ± 2e-08 m3/mol
[3]; x2 = 0.7042
  excess molar volume: 8.17e-07 ± 1.9e-08 m3/mol
[3]; x2 = 0.7392
  excess molar volume: 7.75e-07 ± 1.9e-08 m3/mol
[3]; x2 = 0.8289
  excess molar volume: 5.74e-07 ± 1.8e-08 m3/mol
[3]; x2 = 0.8978
  excess molar volume: 3.84e-07 ± 1.7e-08 m3/mol
[3]; x2 = 0.9408
  excess molar volume: 2.33e-07 ± 1.7e-08 m3/mol
[4]; x2 = 0.0677
  excess molar enthalpy: 0.08 ± 0.00163 kcal/mol
[4]; x2 = 0.1493
  excess molar enthalpy: 0.151 ± 0.00263 kcal/mol
[4]; x2 = 0.2299
  excess molar enthalpy: 0.21 ± 0.00359 kcal/mol
[4]; x2 = 0.3113
  excess molar enthalpy: 0.255 ± 0.0043 kcal/mol
[4]; x2 = 0.3836
  excess molar enthalpy: 0.282 ± 0.00478 kcal/mol
[4]; x2 = 0.4482
  excess molar enthalpy: 0.296 ± 0.00502 kcal/mol
[4]; x2 = 0.5078
  excess molar enthalpy: 0.3 ± 0.00502 kcal/mol
[4]; x2 = 0.5555
  excess molar enthalpy: 0.295 ± 0.00502 kcal/mol
[4]; x2 = 0.5708
  excess molar enthalpy: 0.292 ± 0.00502 kcal/mol
[4]; x2 = 0.6136
  excess molar enthalpy: 0.28 ± 0.00478 kcal/mol
[4]; x2 = 0.6586
  excess molar enthalpy: 0.265 ± 0.00454 kcal/mol
[4]; x2 = 0.7055
  excess molar enthalpy: 0.248 ± 0.0043 kcal/mol
[4]; x2 = 0.7534
  excess molar enthalpy: 0.225 ± 0.00382 kcal/mol
[4]; x2 = 0.7837
  excess molar enthalpy: 0.206 ± 0.00359 kcal/mol
[4]; x2 = 0.832
  excess molar enthalpy: 0.173 ± 0.00311 kcal/mol
[4]; x2 = 0.8778
  excess molar enthalpy: 0.135 ± 0.00239 kcal/mol
[4]; x2 = 0.9233
  excess molar enthalpy: 0.0902 ± 0.00177 kcal/mol
[4]; x2 = 0.9637
  excess molar enthalpy: 0.0459 ± 0.0011 kcal/mol
